Measured values reported in patent US6015877A, “Compounds for inhibition of proteolysis” (President and Fellows of Harvard College, priority 1996, dated 2000).
“And” between values parts separate entries of the source, which are not always exact repeats. Equal values may be shown once. “Also recorded” adds a separate entry of the source. Read-outs that look alike come from different tables or passages of the source. Blank lines part the entries; values can stand above or below the compound they belong to. *1 amine or outer side, *2 acyl side, *3 side chain or, on linkers, in order; H or OH if unused. Where a SMILES comes first, the peptide text is derived from it. Where no end group is shown, it is not given here. [ ]: non-standard residue; d: D form. The star is where a group is joined. Farnesyl = CC(C)=CCC/C(C)=C/CC/C(C)=C/C*; CO = O=C([*:1])[*:2]

Columns and labels:
[1] = test system: isoprenylated protein endoprotease; assay: Inhibition of the solubilized / partially purified enzyme by non-halomethyl ketone inhibitors; assay type: biochemical, bovine
[2] = test system: isoprenylated protein endoprotease; assay: Inhibition of the isoprenylated protein endoprotease by halomethyl ketones (preincubation, 20-fold dilution, Kitz-Wilson); assay type: biochemical, bovine; details: for enzyme activity (%): diluted 20-fold, control 100; for inhibition / inactivation of the endoprotease (in words): solubilized endoprotease
Description: A typical procedure of inhibition is given here to illustrate the details of this procedure. A CHAPSO-solubilized protein preparation (2.5 mg/mL) or a partially […] protein preparation (0.17 mg/mL) was incubated with chloromethyl ketone inhibitors at 37° C. for 30 minutes. Aliquots were removed at timed intervals and diluted with assay buffer E for the solubilized preparation of with assay buffer D for the partially purified protein preparation in 20-fold. The final protein and substrate concentrations were 0.12 mg/mL (or 8.5 μg of partially purified protein preparation per milliliter) and 2.0 μM, respectively, except as otherwise noted; the residual enzyme activity was assayed as described above. TPCK and BFC-CMK were characterized by kinetic measurements. The bimolecular rate constant Kinh /K1 and pseudo-first-order kinetic rate constant Kinh were obtained using the Kitz-Wilson method (Kitz & Wilson, 1962). According to Kitz-Wilson method, the irreversible modification of an enzyme by an active-site directed inhibitor is given by [drawing 9] where K1 =[E]·[I]/[E·I] and -d([E]+[E·I])/dt=Kinh [E·I]. [I] and [E] are inhibitor and enzyme concentrations at a certain time, respectively. Under conditions here [I]>>[Eo ], which is the enzyme concentration at time zero, [I] is constant. Under conditions where the enzyme-inhibitor solution is extensively diluted before the assay, a simplified equation 2 can be obtained as follows: […]
To further establish the specificity of the inactivation process, several commercially available haloketones were studies as putative inactivators of the endoprotease. The structures of these analogs are shown and their activities are shown in Table V. In these studies, the solubilized protein material was preincubated with a chloromethyl ketone inhibitor at 284 μM (unless otherwise noted) for 30 minutes; then 2.5-μL aliquots of the incubated solution were taken and diluted 20-fold for assay of the residual enzyme activity. […] Save for the dipeptide derivatives (ZGGFCMK and ZAPFCMK) derived from TPCK, the other halomethyl ketones tested are virtually inert.
FIG. 16(A) Time-dependent inhibition. 16B Kitz-Wilson plot (the upper panel) for the inhibition of the isoprenylated protein endoprotease by TPCK. The inhibition studies were carried out at 37° C. using the solubilized endoprotease preparation. Aliquote of the inhibitor-enzyme solution were taken at interval times and diluted by a factor of 20, and the enzyme activity was assayed as described in Methods. (B) (the lower panel) the concentration-dependent inhibition of the endoprotease by TPCK. The inhibition studies were carried out at 37° C. The crude CHAPSO-solubilized endoprotease preparations (0.12 mg/mL) were preincubated for 60 min in 50 μL of buffer E in the presence of 284 μM TPCK or TLCK with 6% DMSO and 2% 2-propanol. After the incubation, the reaction solution was diluted by a factor of 20, and the remaining enzyme activity of the inhibitor-enzyme solution was assayed as described in Methods. Data were represented in mean from duplicate runs.

[3] = test system: membrane-bound isoprenylated protein endoprotease; details: cited from earlier work
[4] = test system: protease of bovine liver microsomal membranes (isoprenylated protein endoprotease); assay: Proteolysis of N-[3H]acetyl isoprenylated peptide substrates by calf liver microsomal membranes (N-[3H]-AFC formation, HPLC); details: for activity as substrate (Table 1, words): 10 mM, prolonged incubation time (16 hours), detection limit 1.13 pmol/min/mg
[5] = target: T1, cysteine protease apopain (Homo sapiens, UniProt P42574); details: cited from earlier work
T1 sequence (P42574 29-175 limits assumed): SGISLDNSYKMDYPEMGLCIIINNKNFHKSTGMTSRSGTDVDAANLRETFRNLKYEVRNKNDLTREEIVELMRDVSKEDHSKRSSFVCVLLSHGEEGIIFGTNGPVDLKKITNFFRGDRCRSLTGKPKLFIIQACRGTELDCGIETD
T1 sequence (P42574 176-277 limits assumed): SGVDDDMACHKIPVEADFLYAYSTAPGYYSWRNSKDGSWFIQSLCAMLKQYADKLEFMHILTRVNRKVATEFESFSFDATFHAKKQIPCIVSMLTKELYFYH

[6] = target: T2, cysteine protease ICE (interleukin-1β converting enzyme) (Homo sapiens, UniProt P29466); details: cited from earlier work
T2 sequence (P29466 120-297 limits assumed): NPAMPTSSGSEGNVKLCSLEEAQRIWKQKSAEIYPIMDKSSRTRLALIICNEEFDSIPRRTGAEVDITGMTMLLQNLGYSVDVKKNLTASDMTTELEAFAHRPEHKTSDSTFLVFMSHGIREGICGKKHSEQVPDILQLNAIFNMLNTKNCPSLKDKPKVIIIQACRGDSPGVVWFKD
T2 sequence (P29466 317-404 limits assumed): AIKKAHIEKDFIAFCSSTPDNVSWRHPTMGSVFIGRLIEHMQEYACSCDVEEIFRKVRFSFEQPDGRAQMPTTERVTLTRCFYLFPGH

[7] = 284 μM inhibitor, solubilized protein preincubated 30 minutes
[8] = Kitz-Wilson plot using the partially purified enzyme preparation
[9] = calf liver microsomal membranes
[10] = Table 1, same enzyme preparation, average of two determinations ±S.D.

- enzyme activity (%) detergent extract ([1]; inhibitor 5 mM, control 100): 108 ± 8%
Compound: O[C@H](CS)[C@H](O)CS (racemic) [DTT, Dithiothreitol]
- effect on the solubilized enzyme's activity (in words) ([1]; 1-5 mM): Neither DTT (1-5 mM) nor glycerol (20%) affects the enzyme's activity

- enzyme activity (%) [2, 7]: 27 ± 2%
- Ki ([2]; Kitz-Wilson plot using the partially purified enzyme preparation, read-out: K1): 30 µM and ~30 µM
Compound: CC(C)=CCC/C(C)=C/CC/C(C)=C/CSC[C@H](NC(=O)OC(C)(C)C)C(=O)CCl (stereo in doubt) [BFCCMK, N-Boc-S-all-trans-Farnesyl-L-cysteine Chloromethyl Ketone]
- Kinh (s^-1) [2, 8]: (5.9 ± 0.4) × 10^-3 s^-1
- Kinh /K1 [2, 8]: 19.4 M⁻¹ s⁻¹ and 19.4 ± 1 M⁻¹ s⁻¹
- increase of the second-order rate constant ([2]; compared with TPCK): 15 fold
- inhibition / inactivation of the endoprotease (in words) [2]: good inhibitors; also recorded: quite a potent inactivator of the endoprotease; also recorded: most potent inactivator of the endoprotease; also recorded: much more potent inactivator of the endoprotease than TPCK

Compound: CC(C)=CCC/C(C)=C/CC/C(C)=C/CSC[C@@H](C=O)NC(=O)OC(C)(C)C (stereo in doubt) [N-Boc-S-all-trans-farnesyl-L-cysteine Aldehyde]
- inhibition of the enzyme (in words) ([3]; Ma et al., 1993): fairly potent competitive inhibitor

Compound: CC(=O)N[C@@H](CSC/C=C(\C)CC/C=C(\C)CCC=C(C)C)C(N)=O [AFC amide]
- substrate activity (in words) [4, 9]: not a substrate for the enzyme

Compound: N=C(N)c1ccc(CS(=O)(=O)F)cc1 [APMSF, 4-(amidinophe-nyl)methanesulfonyl fluoride]
- inhibition of the endoprotease (in words) [3]: not inhibited

Compound: CC(C)C[C@H](NC(=O)[C@@H](NC(=O)N[C@@H](Cc1ccccc1)C(=O)O)[C@@H]1CCN=C(N)N1)C(=O)N[C@H](C=O)Cc1ccccc1 [Chymostatin]
- inhibition of the endoprotease (in words) ([1]; 0.33 mM): not inhibited
- enzyme activity (%) detergent extract ([1]; inhibitor 0.33 mM, control 100): 104 ± 8%
- enzyme activity (%) partially purified ([1]; inhibitor 0.33 mM, control 100): 99 ± 1%
- enzyme activity (%) partially purified ([1]; inhibitor 0.33 mM, control 100, listed as chymostatin): not inhibited

Compound: CCN1C(=O)C=CC1=O [N-ethylma-leimide]
- inhibition of apopain (in words) [5]: inhibited

Compound: O=C(O)c1cc[c]([Hg][Cl])cc1 [PCMB, p-chloromercuribenzoate]
- inhibition of ICE (in words) [6]: inactivated
- inhibition of the endoprotease ([3]; 0.5 mM, membrane-bound enzyme): 41%
- partially purified enzyme activity inhibited ([1]; 5 μM, partially purified enzyme): 67%
- enzyme activity (%) detergent extract ([1]; 0.5 mM PCMB, then +5 mM DTT (regenerated activity)): 44 ± 4% and 44%
- regeneration of the inhibited activity after extensive dialysis and dilution (in words) ([1]; detergent extract inhibited by 0.5 mM PCMB): no regeneration of the inhibited activity was observed
- enzyme activity (%) partially purified ([1]; inhibitor 5 μm, control 100): 33 ± 3%

Compound: O=S(=O)(F)Cc1ccccc1 [PMSF, phenylmethanesulfonyl fluoride]
- inhibition of the endoprotease (in words) ([1]; 1 mM): not inhibited
- enzyme activity (%) detergent extract ([1]; inhibitor 1 mM, control 100): 93 ± 3%

Compound: CC(C)[C@H](NC(=O)[C@H](CCCNC(=N)N)NC(=O)N[C@@H](Cc1ccccc1)C(=O)O)C(=O)N[C@H](C=O)CCCNC(=N)N [antipain] ({Phe-CO}-Arg-Val-Arg-aldehyde)
- inhibition of ICE (in words) [6]: insensitive

Compound: OCC(O)CO [glycerol]
- effect on the solubilized enzyme's activity (in words) ([1]; 20%): Neither DTT (1-5 mM) nor glycerol (20%) affects the enzyme's activity

Compound: CC(=O)N[C@@H](CC(C)C)C(=O)N[C@@H](CC(C)C)C(=O)N[C@H](C=O)CCCNC(=N)N [leupeptin]
- inhibition of the endoprotease (in words) ([3]; 1.0 μM): not inhibited

Compound: N-Ac-S-all-trans-farnesyl-D-Cys-L-Val-L-Ile [AFC--Val--Ile (6)]
- activity as substrate (Table 1, words) [4]: inactive

- enzyme activity (%) [2, 7]: 44 ± 1%
Compound: N-Benzyloxycarbonylglycylglycyl-S-all-trans-farnesyl-L-cysteine Chloromethyl Ketone [ZGGFCCMK]
- inhibition / inactivation of the endoprotease (in words) [2]: good inhibitors

- Km [4, 10]: 4.01 ± 0.4 µM
- Km [4, 9]: 14.6 µM
Compound: N-[^3 H-Acetyl-S-all-trans-geranylgeranyl-L-Cys-L-Val-L-ile [AGGC--Val--Ile (2)]
- Vmax [4, 10]: 26.20 ± 0.97 pmol/min/mg
- Vmax [4, 9]: 19.35 pmol/min/mg
- substrate activity (in words) [4, 9]: good substrates

Compound: N-[^3 H]-Acetyl-L-Cys-L-Val-L-Ile [Cys--Val--Ile (4)]
- activity as substrate (Table 1, words) [4]: inactive
- substrate activity (in words) [4, 9]: Neither analog was measurably processed

Compound: N-[^3 H]-Acetyl-S-all-trans-geranylgeranyl-D-cys-L-Val-L-Ile [AGGC--Val--Ile (2) D--L--L]
- activity as substrate (Table 1, words) [4]: inactive
- substrate activity (in words) [4, 9]: no measurable protease activity

Compound: N-[^3 H]-Acetyl-S-thio-t-butyl-L-Cys-L-Val-L-Ile [t-butylthio-Cys--Val--Ile (5)]
- activity as substrate (Table 1, words) [4]: inactive
- substrate activity (in words) [4, 9]: Neither analog was measurably processed

Compound: N-[^3 H]-acetyl-S-all-trans-farnesyl-L-Cys-L-Val-D-Ile [AFC--Val--Ile (8)]
- activity as substrate (Table 1, words) [4]: inactive
- substrate activity (in words) [4, 9]: did not have substrate activity

Compound: N-[^3 H]-acetyl-S-all-trans-farnesyl-L-Cys-L-Val-L-Ile-D-Met ({(3H)‑acetyl}-C(Farnesyl)VI[dM]) [AFC--Val--Ile--Met (10)]
- activity as substrate (Table 1, words) [4]: weakly active (detectable activity is observed under prolonged incubation periods, but the activity is <5% that observed with AFC-V-I-S)
- substrate activity (in words) [4, 9]: processed to some extent

Compound: N-acetyl-S-all-trans-farnesyl-D-Cys-D-Val-L-Ile [D-D-L]
- substrate activity (in words) [4, 9]: inactive

Compound: N-acetyl-S-all-trans-farnesyl-L-Cys-D-Val-L-Ile [AFC--Val--Ile (7)]
- activity as substrate (Table 1, words) [4]: inactive
- substrate activity (in words) [4, 9]: did not have substrate activity

Compound: N-acetyl-S-trans-geranyl-D-Cys-L-Val-Ile [AGC--Val--Ile (3) D--L--L]
- activity as substrate (Table 1, words) [4]: inactive
- substrate activity (in words) [4, 9]: no measurable protease activity

- Km [4, 10]: 14.6 ± 2.14 µM
Compound: N-acetyl-S-trans-geranyl-L-Cys-L-Val-L-Ile [AGC--Val--Ile (3)]
- Vmax [4, 10]: 19.35 ± 1.12 pmol/min/mg
- substrate activity (in words) [4, 9]: good substrates

Compound: Nα-tosyl-L-lysine chloromethyl ketone [TLCK]
- inhibition of apopain (in words) [5]: not
- enzyme activity (%) ([2]; 1000 μM inhibitor, solubilized protein preincubated): 94 ± 15%
- inhibition / inactivation of the endoprotease (in words) [2]: did not inhibit the enzyme activity; also recorded: does not inhibit the enzyme activity

Compound: aprotinin
- inhibition of the endoprotease (in words) ([3]; 0.6 μM): not inhibited

Compound: bis(p-nitro-phenyl)phosphate [BNPP]
- inhibition of the endoprotease (in words) ([1]; 1 mM): not inhibited
- enzyme activity (%) detergent extract ([1]; inhibitor 1 mM, control 100): 100 ± 8%

Compound: β-(2-naphthyl)-L-alanine chloromethyl ketone [2-Nal-Ala-CMK]
- enzyme activity (%) [2, 7]: 53 ± 1%
- inhibition / inactivation of the endoprotease (in words) [2]: inhibit the endoprotease well
